Consider 47 compounds from US6515140B2, “Fused pyrrolecarboxamides; a new class of GABA brain receptor ligands” (Neurogen Corporation, priority 1996, dated 2003).

For orientation: melting point means the temperature, or range, at which the solid turns liquid. With `CCNCCOc1ccncc1NC(=O)c1c[nH]c2c1C(=O)CCC2.Cl`, the melting point lay in the range of 178 to 180 °C.

Take `CCCNCCOc1ccncc1NC(=O)c1c[nH]c2c1C(=O)CCC2.Cl`: the melting point was 177 to 178 °C.

The compound `CC(C)NCCOc1ccncc1NC(=O)c1c[nH]c2c1C(=O)CCC2.Cl` yielded a melting point of 167 to 169 °C.

For `CCCCNCCOc1ccncc1NC(=O)c1c[nH]c2c1C(=O)CCC2.Cl`, the melting point lay within 157 to 159 °C.

For `Cl.O=C(Nc1cnccc1OCCNCc1ccccc1)c1c[nH]c2c1C(=O)CCC2`, the melting point fell in the range of 143 to 145 °C.

As for `Cl.O=C(Nc1cnccc1OCc1cccnc1)c1c[nH]c2c1C(=O)CCC2`, the melting point fell in the range of 276 to 277 °C.

Consider `Cl.O=C(Nc1cnccc1OCc1ccncc1)c1c[nH]c2c1C(=O)CCC2`, for which the melting point worked out at 293 °C.

On to `Cl.O=C(Nc1cnccc1OCCN1CCCC1)c1c[nH]c2c1C(=O)CCC2`, for which the melting point is 188 to 245 °C (dec.).

Consider `Cl.O=C(Nc1cnccc1OCCN1CCCCC1)c1c[nH]c2c1C(=O)CCC2`, for which the melting point fell in the range of 208 to 211 °C.

Compound `CCNCCOc1ccc(NC(=O)c2c[nH]c3c2C(=O)CCCC3)cc1.Cl` had a melting point of 227 to 228 °C.

As for `Cl.O=C(Nc1cnccc1OCc1ccncc1)c1c[nH]c2c1C(=O)CCCC2`, the melting point was 235 to 240 °C (dec.).

`Cl.O=C(Nc1cnccc1OCCN1CCCC1)c1c[nH]c2c1C(=O)CCCC2` showed a melting point of 160 to 162 °C.

`CCCNCCOc1ccncc1NC(=O)c1c[nH]c2c1C(=O)CCCC2.Cl` yielded a melting point of 210 °C.

Regarding `CCN(CC)CCN(C)C(=O)COc1ccc(NC(=O)c2c[nH]c3c2C(=O)CCC3)cc1`, the melting point lay in the range of 220 to 228 °C.

On to `CCN(CC)CCN(CC)C(=O)COc1ccc(NC(=O)c2c[nH]c3c2C(=O)CCC3)cc1`, for which the melting point lay within 165 to 167 °C.

Turning to `CCCNCCOc1ccc(NC(=O)c2c[nH]c3c2C(=O)CCC3)cc1F.Cl`, the melting point was determined as 373 °C.

As to `CCCCNCCOc1ccc(NC(=O)c2c[nH]c3c2C(=O)CCC3)cc1.Cl`, the melting point was in the range of 187 to 190 °C.

In the case of `Cl.O=C(Nc1ccc(OCC2CCCNC2)cc1)c1c[nH]c2c1C(=O)CCC2` (centres unmarked), the melting point was in the range of 196 to 199 °C.

As for `O=C(Nc1ccc(OCCO)cc1)c1c[nH]c2c1C(=O)CCC2` [Compound 16, N-[4-(Hydroxyethoxy)phenyl]-4-oxo-4,5,6,7-tetrahydro-1H-indole-3-carboxamide], the melting point was in the range of 245 to 247 °C.

For the compound `COCc1ccc(NC(=O)c2c[nH]c3c2C(=O)CCC3)cc1` [Compound 18, N-[4-(Methoxymethyl)phenyl]-4-oxo-4,5,6,7-tetrahydro-1H-indole-3-carboxamide], the melting point was 164 to 165 °C.

`CNCc1ccc(NC(=O)c2c[nH]c3c2C(=O)CCC3)cc1` [Compound 19, N-[4-(Methylaminomethyl)phenyl]-4-oxo-4,5,6,7-tetrahydro-1H-indole-3-carboxamide] returned a melting point of 217 to 219 °C.

Consider `CCNCc1ccc(NC(=O)c2c[nH]c3c2C(=O)CCC3)cc1` [Compound 21, N-[4-(Ethylaminomethyl)phenyl]-4-oxo-4,5,6,7-tetrahydro-1H-indole-3-carboxamide], for which the melting point fell in the range of 194 to 195 °C.

For the compound `CC(C)NCc1ccc(NC(=O)c2c[nH]c3c2C(=O)CCC3)cc1` [Compound 22, N-[4-(Isopropylaminomethyl)phenyl]-4-oxo-4,5,6,7-tetrahydro-1H-indole-3-carboxamide], the melting point was in the range of 164 to 166 °C.

`CN(C)Cc1ccc(NC(=O)c2c[nH]c3c2C(=O)CCC3)cc1` [Compound 23, N-[4-(Dimethylaminomethyl)phenyl]-4-oxo-4,5,6,7-tetrahydro-1H-indole-3-carboxamide]: the melting point lay in the range of 216 to 218 °C.

For `CNCc1ccc(NC(=O)c2c[nH]c3c2C(=O)CC(C)C3)cc1` (centres unmarked) [Compound 27, N-[4-(Methylaminomethyl)phenyl]-4-oxo-6-methyl-4,5,6,7-tetrahydro-1H-indole-3-carboxamide], the melting point lay in the range of 217 to 219 °C.

Regarding `CC1CC(=O)c2c(C(=O)Nc3ccc(CO)cc3)c[nH]c2C1` (centres unmarked) [Compound 28, N-[4-(Hydroxymethyl)phenyl]-4-oxo-6-methyl-4,5,6,7-tetrahydro-1H-indole-3-carboxamide], the melting point fell in the range of 260 to 262 °C.

In turn, `CC1(C)CC(=O)c2c(C(=O)Nc3ccc(OCCO)cc3)c[nH]c2C1` [Compound 30, N-[4-(2-Hydroxyethoxy)phenyl]-4-oxo-6,6-dimethyl-4,5,6,7-tetrahydro-1H-indole-3-carboxamide] registered a melting point of 268 to 270 °C.

For the compound `CC1(C)CC(=O)c2c(C(=O)Nc3ccc(CO)cc3)c[nH]c2C1` [Compound 31, N-[4-(Hydroxymethyl)phenyl]-4-oxo-6,6-dimethyl-4,5,6,7-tetrahydro-1H-indole-3-carboxamide], the melting point lay in the range of 245 to 247 °C.

`CNCc1ccc(NC(=O)c2c[nH]c3c2C(=O)CC(C)(C)C3)cc1` [Compound 32, N-[4-(Methylaminomethyl)phenyl]-4-oxo-6,6-dimethyl-4,5,6,7-tetrahydro-1H-indole-3-carboxamide]: the melting point lay within 230 to 232 °C.

In the case of `O=C(Nc1ccc2c(c1)NCCO2)c1c[nH]c2c1C(=O)CCC2` [Compound 33, N-(3,4-Dihydro-2H-1,4-benzoxazin-6-yl)-4-oxo-4,5,6,7-tetrahydro-1H-indole-3-carboxamide], the melting point amounted to 216 °C.

The compound `O=C(Nc1ccc2c(c1)CCN2)c1c[nH]c2c1C(=O)CCC2` [Compound 35, N-(2,3-Dihydro-1H-indol-5-yl)4-oxo-4,5,6,7-tetrahydro-1H-indole-3-carboxamide] showed a melting point of 283 to 286 °C.

In turn, `CC1(C)CCc2[nH]cc(C(=O)Nc3ccc4c(c3)OCCO4)c2C1=O` [Compound 37, N-(2,3-Dihydro-1,4-benzodioxin-6-yl)-4-oxo-5,5-dimethyl-4,5,6,7-tetrahydro-1H-indole-3-carboxamide] showed a melting point of 241 to 243 °C.

As for `CC1(C)CCc2[nH]cc(C(=O)Nc3ccc4c(c3)OCOC4)c2C1=O` [Compound 38, N-(4H-1,3-Benzodioxin-7-yl)-4-oxo-5,5-dimethyl-4,5,6,7-tetrahydro-1H-indole-3-carboxamide], the melting point was 251 to 252 °C.

`O=C(Nc1ccc2c(c1)OCO2)c1c[nH]c2c1C(=O)CCCC2` [Compound 39, N-(1,3-Benzodioxol-5-yl)-4-oxo-1,4,5,6,7,8-hexahydro-cyclohepta[b]pyrrole-3-carboxamide]: the melting point is 210 to 212 °C.

Compound `CC1CC(=O)c2c(C(=O)Nc3ccc4c(c3)OC(C)(C)O4)c[nH]c2C1` (centres unmarked) [Compound 40, N-(2,2-Dimethyl-1,3-benzodioxol-5-yl)-4-oxo-6-methyl-4,5,6,7-tetrahydro-1H-indole-3-carboxamide] returned a melting point of 155 to 157 °C.

`CC1CC(=O)c2c(C(=O)Nc3ccc4c(c3)OCO4)c[nH]c2C1` (centres unmarked) [Compound 41, N-(1,3-Benzodioxol-5-yl)-4-oxo-6-methyl-4,5,6,7-tetrahydro-1H-indole-3-carboxamide] came in with a melting point of 297 to 299 °C.

Regarding `CC1CC(=O)c2c(C(=O)Nc3ccc4c(c3)OCCO4)c[nH]c2C1` (centres unmarked) [Compound 42, N-(2,3-Dihydro-1,4-benzodioxin-6-yl)-4-oxo-6-methyl-4,5,6,7-tetrahydro-1H-indole-3-carboxamide], the melting point lay within 290 to 292 °C.

For the compound `CC1(C)CC(=O)c2c(C(=O)Nc3ccc4c(c3)OCO4)c[nH]c2C1` [Compound 43, N-(1,3-Benzodioxol-5-yl)-4-oxo-6,6-dimethyl-4,5,6,7-tetrahydro-1H-indole-3-carboxamide], the melting point fell in the range of 245 to 246 °C.

As to `CC1(C)CC(=O)c2c(C(=O)Nc3ccc4c(c3)OCOC4)c[nH]c2C1` [Compound 45, N-(4H-1,3-Benzodioxin-7-yl)-4-oxo-6,6-dimethyl-4,5,6,7-tetrahydro-1H-indole-3-carboxamide], the melting point was in the range of 234 to 236 °C.

Turning to `O=C(Nc1ccc(CCN2CCCC2)cc1)c1c[nH]c2c1C(=O)CCC2` [Compound 59, N-[4-(2-Pyrrolidin-1-ylethyl)phenyl]-4-oxo-4,5,6,7-tetrahydro-1H-indole-3-carboxamide], the melting point was in the range of 184 to 186 °C.

For the compound `CCNCCOc1ccc(NC(=O)c2c[nH]c3c2C(=O)CCC3)cc1` [Compound 62, N-[4-(2-Ethylaminoethoxy)phenyl]-4-oxo-4,5,6,7-tetrahydro-1H-indole-3-carboxamide], the melting point was 140 to 141 °C.

In the case of `CCCNCCOc1ccc(NC(=O)c2c[nH]c3c2C(=O)CCC3)cc1` [Compound 64, N-[4-(2-n-Propylaminoethoxy)phenyl]-4-oxo-4,5,6,7-tetrahydro-1H-indole-3-carboxamide], the melting point is 130 to 133 °C.

Compound `CC(C)NCCOc1ccc(NC(=O)c2c[nH]c3c2C(=O)CCC3)cc1` [Compound 69, N-[4-(2-Isopropylaminoethoxy)phenyl]-4-oxo-4,5,6,7-tetrahydro-1H-indole-3-carboxamide] came in with a melting point of 284 to 286 °C.

Take `O=C(Nc1ccc(OCCNCC2CC2)cc1F)c1c[nH]c2c1C(=O)CCC2` [Compound 72, N-[2-Fluoro-4-(2-Cyclopropylmethylaminoethoxy)phenyl]-4-oxo-4,5,6,7-tetrahydro-1H-indole-3-carboxamide]: the melting point is 247 to 250 °C.

The compound `CC(C)CNCCOc1ccc(NC(=O)c2c[nH]c3c2C(=O)CCC3)c(F)c1` [Compound 76, N-[2-Fluoro-4-(2-Isobutylaminoethoxy)phenyl]-4-oxo-4,5,6,7-tetrahydro-1H-indole-3-carboxamide] yielded a melting point of 152 to 155 °C.

`CC(C)CNCCOc1ccc(NC(=O)c2c[nH]c3c2C(=O)CCC3)cc1F` [Compound 77, N-[3-Fluoro-4-(2-Isobutylaminoethoxy)phenyl]-4-oxo-4,5,6,7-tetrahydro-1H-indole-3-carboxamide] yielded a melting point of 147 to 149 °C.

Turning to `CC(C)(C)NCCOc1ccc(NC(=O)c2c[nH]c3c2C(=O)CCC3)cc1` [Compound 81, N-[4-(2-t-Butylaminoethoxy)phenyl]-4-oxo-4,5,6,7-tetrahydro-1H-indole-3-carboxamide], the melting point lay within 290 to 292 °C.
